Data on 4 compounds can be found in patent publication US8822690B2, “High transmissional yellow dye for LCD and synthetic method thereof” (LG Display Co., Ltd., priority 2012, dated 2014).

Where two headings read alike, the source gives them in different places. A value given as a limit tells only on which side of the number the result lay.

Common to all, as to assay type: physicochemical
Data set [1] in a line: qualitative solubility assessment of the synthesized quinophthalone series dye. To be noted: organic solvent or mixture. From the text: In below Table 1, there were qualitative solubility assessment results of the synthesized quinophthalone series dye. […] This means that new design to improve solubility is successful. It was shown that QP3 improving intermolecular steric hindrance by bulk-sized alkyl residue and QP4 increasing affinity to the process solvent, PGMEA, by introducing carboxylate functional group increased its solubility successfully than QP1.

Data set [2] is described as follows: solubility to PGMEA in primary color filter application property assessment. The settings on record: for 1% solubility of dye to PGMEA: 1% in PGMEA.
Data set [3] in a line: UV-vis absorption spectroscopic analysis of dye. To be noted: slope of absorption reduction just prior to 500 nm, absorption after 500 nm. From the text: As QP3 and QP4 increased the molar extinction coefficient further in addition to somewhat bathochromic-shift of λmax, they show very strong and sharp absorption peaks prior to 500 nm. This is very ideal absorption peak for being used as a yellow compensation dye to correct the major green dye.

Data set [4] can be described thus: spectroscopic change by temperature and number of PB (Δ Eab). Here is the method:
Color simulation was performed according to the condition described in FIG. 15.

Data set [5] in a line: thermal resistance by Thermo Gravimetric Analyzer (TGA). To be noted: high temperature zone over 300° C. As for the experimental part:
Through Thermo Gravimetric Analyzer (TGA), Thermogravimetric Analyzer 2050 (TA instruments), thermal resistance of the synthesized dye was measured (FIG. 3). For the thermal resistance test, change of mass reduction rate (w %) was measured by passing through isothermal section at 220° C. for 30 min, raising the temperature to 30° C.˜400° C. in 10° C./min. In order to apply it as a dye material for LCD color filter, the mass reduction in isothermal zone must be less than 5%. […] In case of QP3 and QP4, it was analyzed that functional groups introduced to improve the solubility gave somewhat reciprocal effects to the thermal resistance of dye. […] It seems that the weight loss is caused by effects of solvents or impurities rather than thermal resistance of dye itself.

Where [6] appears, read: process solvent PGMEA, read-out: solubility in PGMEA.
Setting [7] is: solvent CH2Cl2, read-out: solubility in CH2Cl2.
[8] abbreviates: 180° C., first value of PB sequence.
Setting [9] is: 180° C., second value of PB sequence.
Setting [10] is: 180° C., third value of PB sequence.
Where [11] appears, read: 200° C., first value of PB sequence.
The mark [12] stands for this setting: 200° C., second value of PB sequence.
The mark [13] stands for this setting: 200° C., third value of PB sequence.
The mark [14] stands for this setting: 230° C., first value of PB sequence.
Where [15] appears, read: 230° C., second value of PB sequence.
Setting [16] is: 230° C., third value of PB sequence.

The solubility is the dissolved amount per volume that the medium holds. `O=C1c2cccc3cccc(c23)C(=O)N1c1cccc2c1NC(=c1c(=O)c3cccc4cccc(c1=O)c43)C=C2` [QP2]: the solubility in data set [1] (setting [6]) and in data set [1] (setting [7]) was > 0.5 mg/mL throughout.
Regarding `O=C1c2ccccc2C(=O)C1c1ccc2cccc(N3C(=O)c4ccccc4C3=O)c2n1` [QP1], the solubility in data set [1] (setting [6]) and in data set [1] (setting [7]) was > 5 mg/mL each time.
In the case of `CC(C)(C)c1ccc2c(c1)C(=O)/C(=C1\C=Cc3cccc(N4C(=O)c5ccc(C(C)(C)C)cc5C4=O)c3N1)C2=O` [QP3], the solubility in data set [1] (setting [6]) and in data set [1] (setting [7]) was > 50 mg/mL throughout. The “1% solubility of dye to PGMEA” value in data set [2] is reported as “satisfactory level”. The “solubility to PGMEA” value in data set [2] is 5-10%. For the same compound, in data set [3], the “color property (UV-vis absorption peak)” value is on record as “the most excellent color property”. Further, the “spectroscopic change by # of PB (Δ Eab)” value is given as 0.36 in data set [4] (setting [8]); 1.84 in data set [4] (setting [9]); 1.98 in data set [4] (setting [10]); 0.56 in data set [4] (setting [11]); 2.74 in data set [4] (setting [12]); 2.77 in data set [4] (setting [13]). Further, the “spectroscopic change by # of PB (Δ Eab)” value in data set [4] (setting [14]) is on record as 2.94; in data set [4] (setting [15]), 9.3; in data set [4] (setting [16]), 13.4. Moreover, in data set [5], the “thermal resistance in high temperature zone” value is on record as “the best thermal resistance property”.
Regarding `CCOC(=O)c1ccc2c(c1)C(=O)/C(=C1\C=Cc3cccc(N4C(=O)c5ccc(C(=O)OCC)cc5C4=O)c3N1)C2=O` [QP4], the solubility in data set [1] (setting [6]) and in data set [1] (setting [7]) was > 50 mg/mL throughout. In data set [2], the “1% solubility of dye to PGMEA” value was “satisfactory level”. In data set [2], the “solubility to PGMEA” value was 5-7%. Moreover, the “spectroscopic change by # of PB (Δ Eab)” value is 1.11 in data set [4] (setting [8]); 1.42 in data set [4] (setting [9]); 1.59 in data set [4] (setting [10]); 1.62 in data set [4] (setting [11]); 2.04 in data set [4] (setting [12]); 2.37 in data set [4] (setting [13]). Moreover, the “spectroscopic change by # of PB (Δ Eab)” value in data set [4] (setting [14]) was 3.51; in data set [4] (setting [15]), 6.3; in data set [4] (setting [16]) it was 9.36.
